This note sets out measurements from patent US20240238300A1, “TREATMENT METHODS FOR SUBJECTS WITH CANCER HAVING AN ABERRATION IN EGFR AND/OR HER2” (TAIHO PHARMACEUTICAL CO., LTD., priority 2021, published 2024).

A short description of this series: brain penetrability after single oral administration. The note with it: male, nude, mouse. The series is classed as in vivo, male nude mice. As for the experimental part: Brain penetrability of Compound (1) in nude mice. The brain penetrability of Compound (1) was confirmed by Kp,brain values at 0.5 and 1 hour in male nude mice following a single oral administration at 50 mg/kg (Table 6). Based on the brain penetrability study and brain and plasma protein binding studies, Kp,uu,brain was calculated to be 0.26±0.05 for 0.5 hour and 0.13±0.03 for 1 hour.

Read-outs that look alike come from different tables or passages of the source.

Molecule `C=CC(=O)N1C[C@H](n2c(C#CC3CC3)c(C(=O)N[C@H](C)c3ccccc3)c3c(N)ncnc32)C[C@@H]1C` [Compound (1), 7-((3R,5S)-1-acryloyl-5-methylpyrrolidin-3-yl)-4-amino-6-(cyclopropylethynyl)-N—((R)-1-phenylethyl)-7H-pyrrolo[2,3-d]pyrimidine-5-carboxamide] came in with a Kp uu at 0.5 h (brain and plasma (unbound), 0.5 hr after single oral 50 mg/kg) of 0.26 ± 0.05. Also, the Kp uu at 1 h (brain and plasma (unbound), 1 hr after single oral 50 mg/kg) stood at 0.13 ± 0.03. The molecule also had a Kp at 0.5 h (brain, 0.5 hr after single oral 50 mg/kg) of 0.415 ± 0.08. The concentration at 0.5 h is, setting by setting: (brain, 0.5 hr after single oral 50 mg/kg, read-out: Brain Concentration) 3590 ± 600 ng/g; (plasma, 0.5 hr after single oral 50 mg/kg, read-out: Plasma Concentration) 8720 ± 650 ng/mL. Under “brain, 1 hr after single oral 50 mg/kg”, this molecule showed a Kp at 1 h of 0.206 ± 0.042. Moreover, the concentration at 1 h reads like this: (brain, 1 hr after single oral 50 mg/kg, read-out: Brain Concentration) 1290 ± 440 ng/g; (plasma, 1 hr after single oral 50 mg/kg, read-out: Plasma Concentration) 6170 ± 910 ng/mL.
